Results as given in PMC11062922 (Nature Chemical Biology, 2023).
Where two headings read alike, the source gives them in different places.

Key:
BCR = biological target: T1, BCR (Homo sapiens, UniProt P00519+P11274); assay: Kinobeads competition binding: BCR; conditions: target BCR
T1 construct: endogenous in cells
Description: Supplement 41589_2023_1459_MOESM4_ESM.xlsx, sheet "CATDS matrix" | column: BCR

MAP2K2 = assay: Kinobeads competition binding: MAP2K2; set-up: species or system human; conditions: target MAP2K2
DCK = assay: Kinobeads competition binding: DCK; set-up: species or system human; conditions: target DCK;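 note: share of total target engagement due to this protein at one drug concentration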
PDGFRB = biological target: T2, PDGFRB (Homo sapiens, UniProt P09619); assay: Kinobeads competition binding: PDGFRB; conditions: target PDGFRB;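 note: share of total target engagement due to this protein at one drug concentration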
T2 construct: a mixture of lysates from five cancer cell lines; endogenous in cells
Description: Supplement 41589_2023_1459_MOESM4_ESM.xlsx, sheet "CATDS matrix" | column: PDGFRB

ACVR1B = biological target: T3, ACVR1B (Homo sapiens, UniProt P36896); assay: Kinobeads competition binding: ACVR1B; conditions: target ACVR1B
T3 construct: endogenous in cells
T3 sequence (P36896 24-505): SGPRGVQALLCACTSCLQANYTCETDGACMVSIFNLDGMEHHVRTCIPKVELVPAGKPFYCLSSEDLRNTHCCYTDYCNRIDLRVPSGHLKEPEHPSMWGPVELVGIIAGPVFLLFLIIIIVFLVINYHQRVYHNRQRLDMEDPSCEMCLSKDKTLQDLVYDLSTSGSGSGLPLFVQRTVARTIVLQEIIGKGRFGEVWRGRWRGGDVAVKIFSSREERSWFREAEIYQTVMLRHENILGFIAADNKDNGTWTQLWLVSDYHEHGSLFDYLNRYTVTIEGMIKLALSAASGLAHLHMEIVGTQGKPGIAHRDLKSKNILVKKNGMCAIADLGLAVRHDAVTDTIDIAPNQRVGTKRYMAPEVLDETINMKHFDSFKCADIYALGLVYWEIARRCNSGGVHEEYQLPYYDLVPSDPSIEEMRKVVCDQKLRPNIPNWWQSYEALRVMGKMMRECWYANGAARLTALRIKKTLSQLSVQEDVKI

EPHB3 = biological target: T4, EPHB3 (Homo sapiens, UniProt P54753); assay: Kinobeads competition binding: EPHB3; conditions: target EPHB3
T4 construct: endogenous in cells
T4 sequence (P54753 34-998): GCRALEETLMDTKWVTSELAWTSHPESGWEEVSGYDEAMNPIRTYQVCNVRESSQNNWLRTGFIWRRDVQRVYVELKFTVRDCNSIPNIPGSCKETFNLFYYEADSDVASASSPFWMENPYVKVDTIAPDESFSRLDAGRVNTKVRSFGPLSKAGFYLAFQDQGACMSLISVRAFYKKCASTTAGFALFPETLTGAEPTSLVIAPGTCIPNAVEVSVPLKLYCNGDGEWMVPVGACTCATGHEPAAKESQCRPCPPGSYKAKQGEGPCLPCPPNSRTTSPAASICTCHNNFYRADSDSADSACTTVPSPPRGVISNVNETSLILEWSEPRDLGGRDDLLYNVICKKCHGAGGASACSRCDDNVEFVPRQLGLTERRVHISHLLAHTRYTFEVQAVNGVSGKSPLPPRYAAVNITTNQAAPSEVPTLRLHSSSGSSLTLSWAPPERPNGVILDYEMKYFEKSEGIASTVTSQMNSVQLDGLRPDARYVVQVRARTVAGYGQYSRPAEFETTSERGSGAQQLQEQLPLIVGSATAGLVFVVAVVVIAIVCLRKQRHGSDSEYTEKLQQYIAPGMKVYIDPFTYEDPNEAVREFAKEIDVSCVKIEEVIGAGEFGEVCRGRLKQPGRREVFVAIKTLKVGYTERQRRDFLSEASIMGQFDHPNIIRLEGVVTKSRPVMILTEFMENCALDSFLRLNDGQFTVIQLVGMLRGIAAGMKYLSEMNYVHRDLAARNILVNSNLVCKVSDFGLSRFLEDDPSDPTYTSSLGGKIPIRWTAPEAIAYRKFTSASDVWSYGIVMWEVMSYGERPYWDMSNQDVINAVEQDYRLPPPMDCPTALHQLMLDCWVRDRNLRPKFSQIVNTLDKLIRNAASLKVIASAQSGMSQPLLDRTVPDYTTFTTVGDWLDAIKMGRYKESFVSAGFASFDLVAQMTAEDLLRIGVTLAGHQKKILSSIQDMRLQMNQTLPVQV
Description: Supplement 41589_2023_1459_MOESM4_ESM.xlsx, sheet "CATDS matrix" | column: EPHB3

BMPR1A = assay: Kinobeads competition binding: BMPR1A; set-up: species or system human; conditions: target BMPR1A
NQO2 = assay: Kinobeads competition binding: NQO2; set-up: species or system human; conditions: target NQO2
AKT3 = biological target: T5, AKT3 (Homo sapiens, UniProt Q9Y243); assay: Kinobeads competition binding: AKT3; conditions: target AKT3
T5 construct: endogenous in cells

MERTK = assay: Kinobeads competition binding: MERTK; set-up: species or system human; conditions: target MERTK
EIF2AK1 = assay: Kinobeads competition binding: EIF2AK1; set-up: species or system human; conditions: target EIF2AK1;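 note: share of total target engagement due to this protein at one drug concentration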
CDK7 = biological target: T6, CDK7 (Homo sapiens, UniProt P50613); assay: Kinobeads competition binding: CDK7; conditions: target CDK7
T6 construct: endogenous in cells

MARK4 = assay: Kinobeads competition binding: MARK4; set-up: species or system human; conditions: target MARK4
NEK9 = assay: Kinobeads competition binding: NEK9; set-up: species or system human; conditions: target NEK9
FER = biological target: T7, FER (Homo sapiens, UniProt P16591); assay: Kinobeads competition binding: FER; conditions: target FER
T7 construct: endogenous in cells
Description: Supplement 41589_2023_1459_MOESM4_ESM.xlsx, sheet "CATDS matrix" | column: FER

NEK3 = assay: Kinobeads competition binding: NEK3; set-up: species or system human; conditions: target NEK3
CSNK1A1 = assay: Kinobeads competition binding: CSNK1A1; set-up: species or system human; conditions: target CSNK1A1
PKN3 = PKN3 (Homo sapiens, UniProt Q6P5Z2); assay: NanoBRET in-cell target engagement in HEK293T cells: PKN3; format: cell-based; set-up: full-length PKN3, CSNK2A1 or CSNK2A2 ORF; host or cells: HEK293T;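 note: Full-length PKN3 with C-terminal NanoLuc expressed in HEK293T cells, serial inhibitor dilutions competing against Kinase Tracer K5 at 500 nM, BRET read after 2 h at 37 °C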
[1] = HEK293T cells, in-cell target engagement, read-out: IC50 PKN3 NanoBRET
[2] = average of replicates, read-out: Average of IC50 values NanoBRET PKN3
[3] = biological replicate number 1, read-out: Rep 1 IC50 NanoBRET PKN3
[4] = biological replicate number 2, read-out: Rep 2 IC50 NanoBRET PKN3
[5] = biological replicate number 3, read-out: Rep 3 IC50 NanoBRET PKN3
[6] = biological replicate number 4, read-out: Rep 4 IC50 NanoBRET PKN3

T2 sequence (P09619 33-1106): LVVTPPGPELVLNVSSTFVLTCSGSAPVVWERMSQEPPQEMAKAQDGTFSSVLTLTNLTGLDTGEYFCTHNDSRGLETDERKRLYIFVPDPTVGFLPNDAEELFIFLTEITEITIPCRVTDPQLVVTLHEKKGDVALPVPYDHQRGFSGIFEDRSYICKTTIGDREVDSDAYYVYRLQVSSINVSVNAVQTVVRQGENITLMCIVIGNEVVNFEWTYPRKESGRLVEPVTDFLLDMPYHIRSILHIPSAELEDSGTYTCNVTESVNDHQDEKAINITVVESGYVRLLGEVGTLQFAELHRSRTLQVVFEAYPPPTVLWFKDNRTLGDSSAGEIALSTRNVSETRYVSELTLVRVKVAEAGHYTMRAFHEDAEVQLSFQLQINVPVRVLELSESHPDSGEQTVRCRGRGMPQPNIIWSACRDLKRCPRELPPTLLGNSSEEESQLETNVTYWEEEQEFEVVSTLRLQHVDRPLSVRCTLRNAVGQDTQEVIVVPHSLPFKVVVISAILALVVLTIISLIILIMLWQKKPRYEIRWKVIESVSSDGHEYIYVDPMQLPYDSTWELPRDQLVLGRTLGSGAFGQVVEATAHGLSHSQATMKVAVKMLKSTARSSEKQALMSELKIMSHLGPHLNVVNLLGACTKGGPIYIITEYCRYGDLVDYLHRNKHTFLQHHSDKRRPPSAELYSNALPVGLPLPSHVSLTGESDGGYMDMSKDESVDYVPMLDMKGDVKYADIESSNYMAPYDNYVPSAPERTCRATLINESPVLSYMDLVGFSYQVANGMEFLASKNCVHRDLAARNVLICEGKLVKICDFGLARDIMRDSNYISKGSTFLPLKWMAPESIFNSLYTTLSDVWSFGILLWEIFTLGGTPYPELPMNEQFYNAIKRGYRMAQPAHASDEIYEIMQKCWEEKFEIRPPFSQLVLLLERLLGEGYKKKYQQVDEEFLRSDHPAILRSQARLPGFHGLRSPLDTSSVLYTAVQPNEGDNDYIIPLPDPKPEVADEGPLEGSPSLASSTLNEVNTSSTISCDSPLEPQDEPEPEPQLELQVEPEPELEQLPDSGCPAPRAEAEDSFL
T5 sequence (Q9Y243 whole entry): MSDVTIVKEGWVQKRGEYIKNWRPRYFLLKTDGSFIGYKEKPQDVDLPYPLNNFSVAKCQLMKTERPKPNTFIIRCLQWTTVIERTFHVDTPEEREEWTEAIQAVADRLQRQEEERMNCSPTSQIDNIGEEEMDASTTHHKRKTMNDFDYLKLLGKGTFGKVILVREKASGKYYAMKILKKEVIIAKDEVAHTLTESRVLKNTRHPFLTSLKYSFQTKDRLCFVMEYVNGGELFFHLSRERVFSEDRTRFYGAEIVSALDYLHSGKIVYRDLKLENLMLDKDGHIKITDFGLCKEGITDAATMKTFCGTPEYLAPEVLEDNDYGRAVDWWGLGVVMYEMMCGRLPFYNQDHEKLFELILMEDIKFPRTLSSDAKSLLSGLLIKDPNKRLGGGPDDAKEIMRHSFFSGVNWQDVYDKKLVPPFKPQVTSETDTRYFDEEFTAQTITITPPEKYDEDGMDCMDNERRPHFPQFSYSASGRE
T1 sequence (P11274+P00519 fused): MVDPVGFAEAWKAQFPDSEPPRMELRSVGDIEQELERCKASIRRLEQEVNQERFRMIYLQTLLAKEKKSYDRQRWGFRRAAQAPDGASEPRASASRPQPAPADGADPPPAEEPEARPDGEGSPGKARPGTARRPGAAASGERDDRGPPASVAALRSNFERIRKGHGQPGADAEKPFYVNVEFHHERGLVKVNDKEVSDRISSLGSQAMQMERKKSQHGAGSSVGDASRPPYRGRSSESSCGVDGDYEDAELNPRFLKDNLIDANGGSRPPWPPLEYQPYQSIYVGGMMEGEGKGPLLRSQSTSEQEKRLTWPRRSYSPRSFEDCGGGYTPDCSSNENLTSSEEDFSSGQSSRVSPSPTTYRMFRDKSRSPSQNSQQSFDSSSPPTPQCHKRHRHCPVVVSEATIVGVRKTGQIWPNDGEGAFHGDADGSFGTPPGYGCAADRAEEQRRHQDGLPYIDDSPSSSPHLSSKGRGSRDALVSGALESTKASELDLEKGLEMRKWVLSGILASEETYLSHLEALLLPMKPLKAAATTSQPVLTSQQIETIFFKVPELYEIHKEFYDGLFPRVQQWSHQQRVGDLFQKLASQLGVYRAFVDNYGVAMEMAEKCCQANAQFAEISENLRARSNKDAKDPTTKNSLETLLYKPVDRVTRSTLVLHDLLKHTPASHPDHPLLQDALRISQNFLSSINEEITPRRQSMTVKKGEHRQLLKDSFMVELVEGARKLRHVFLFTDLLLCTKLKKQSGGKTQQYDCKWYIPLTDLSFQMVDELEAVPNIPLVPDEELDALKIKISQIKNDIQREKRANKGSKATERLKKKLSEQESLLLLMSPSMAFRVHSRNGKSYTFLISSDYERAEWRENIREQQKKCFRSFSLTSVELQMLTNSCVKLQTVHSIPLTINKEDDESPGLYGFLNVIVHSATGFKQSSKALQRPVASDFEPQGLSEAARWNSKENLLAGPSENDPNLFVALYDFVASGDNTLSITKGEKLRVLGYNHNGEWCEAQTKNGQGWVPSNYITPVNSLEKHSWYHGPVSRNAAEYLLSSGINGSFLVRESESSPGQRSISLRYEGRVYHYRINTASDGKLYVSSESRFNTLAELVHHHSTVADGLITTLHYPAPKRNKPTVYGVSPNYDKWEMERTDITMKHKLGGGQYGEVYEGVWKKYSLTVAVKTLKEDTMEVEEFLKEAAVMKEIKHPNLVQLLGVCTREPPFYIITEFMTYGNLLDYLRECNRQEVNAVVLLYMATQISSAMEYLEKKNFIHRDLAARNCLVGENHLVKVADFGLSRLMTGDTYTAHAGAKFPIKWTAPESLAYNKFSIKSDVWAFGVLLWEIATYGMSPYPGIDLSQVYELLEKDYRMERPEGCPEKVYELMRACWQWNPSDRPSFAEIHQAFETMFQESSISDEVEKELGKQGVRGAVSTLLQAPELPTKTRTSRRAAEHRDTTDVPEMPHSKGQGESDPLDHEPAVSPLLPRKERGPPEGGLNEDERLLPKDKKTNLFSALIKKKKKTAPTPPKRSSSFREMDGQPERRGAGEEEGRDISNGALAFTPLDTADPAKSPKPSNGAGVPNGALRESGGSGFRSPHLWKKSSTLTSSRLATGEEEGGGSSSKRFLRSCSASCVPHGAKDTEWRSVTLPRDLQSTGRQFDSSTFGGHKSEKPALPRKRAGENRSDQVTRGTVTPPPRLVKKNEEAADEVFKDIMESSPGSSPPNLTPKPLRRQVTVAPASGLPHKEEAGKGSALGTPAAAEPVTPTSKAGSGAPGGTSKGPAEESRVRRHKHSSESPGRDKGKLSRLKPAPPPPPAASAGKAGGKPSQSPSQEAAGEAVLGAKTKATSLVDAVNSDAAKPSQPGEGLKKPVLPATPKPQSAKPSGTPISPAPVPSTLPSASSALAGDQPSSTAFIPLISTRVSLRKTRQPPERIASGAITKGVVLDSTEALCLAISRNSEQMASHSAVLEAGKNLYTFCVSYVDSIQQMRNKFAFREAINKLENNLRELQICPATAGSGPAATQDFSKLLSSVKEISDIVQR
Chain of PKN3 (Q6P5Z2 whole entry): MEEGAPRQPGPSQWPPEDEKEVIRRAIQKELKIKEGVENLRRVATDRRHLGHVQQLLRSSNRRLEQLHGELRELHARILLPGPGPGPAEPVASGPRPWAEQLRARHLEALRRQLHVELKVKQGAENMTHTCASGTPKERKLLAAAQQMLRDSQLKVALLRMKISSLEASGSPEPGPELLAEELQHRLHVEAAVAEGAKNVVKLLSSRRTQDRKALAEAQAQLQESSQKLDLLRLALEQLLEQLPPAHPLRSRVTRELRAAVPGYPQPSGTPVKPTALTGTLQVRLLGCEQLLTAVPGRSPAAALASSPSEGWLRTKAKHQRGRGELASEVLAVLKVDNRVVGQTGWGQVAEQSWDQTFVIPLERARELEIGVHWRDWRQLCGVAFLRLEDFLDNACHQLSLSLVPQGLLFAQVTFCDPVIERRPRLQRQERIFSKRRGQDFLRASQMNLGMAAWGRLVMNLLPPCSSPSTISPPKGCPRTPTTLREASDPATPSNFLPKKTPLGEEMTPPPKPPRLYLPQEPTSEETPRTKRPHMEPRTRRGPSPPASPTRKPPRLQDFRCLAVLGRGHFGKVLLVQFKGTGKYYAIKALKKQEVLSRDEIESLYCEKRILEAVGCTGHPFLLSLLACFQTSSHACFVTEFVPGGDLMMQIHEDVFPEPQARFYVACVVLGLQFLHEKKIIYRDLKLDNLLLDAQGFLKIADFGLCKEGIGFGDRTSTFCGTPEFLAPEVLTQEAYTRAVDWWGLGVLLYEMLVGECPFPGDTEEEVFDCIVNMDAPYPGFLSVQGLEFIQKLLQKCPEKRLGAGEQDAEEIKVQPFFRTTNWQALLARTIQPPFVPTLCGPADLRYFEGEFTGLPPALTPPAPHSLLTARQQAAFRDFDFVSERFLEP
T6 sequence (P50613 whole entry): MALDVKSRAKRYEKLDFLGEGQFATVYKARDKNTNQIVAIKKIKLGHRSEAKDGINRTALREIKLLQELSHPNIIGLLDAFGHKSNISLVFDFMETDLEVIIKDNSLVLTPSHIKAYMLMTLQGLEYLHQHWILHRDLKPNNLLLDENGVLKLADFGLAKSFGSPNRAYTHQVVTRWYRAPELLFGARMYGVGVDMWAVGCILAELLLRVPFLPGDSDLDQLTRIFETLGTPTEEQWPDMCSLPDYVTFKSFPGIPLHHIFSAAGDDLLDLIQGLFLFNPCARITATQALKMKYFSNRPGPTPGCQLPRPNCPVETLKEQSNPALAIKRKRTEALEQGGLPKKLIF

Compound | CATDS (BCR) | CATDS (MAP2K2) | CATDS (DCK) | CATDS (PDGFRB) | CATDS (ACVR1B) | CATDS (EPHB3) | CATDS (BMPR1A) | CATDS (NQO2) | CATDS (AKT3) | CATDS (MERTK) | CATDS (EIF2AK1) | CATDS (CDK7) | CATDS (MARK4) | CATDS (NEK9) | CATDS (FER) | CATDS (NEK3) | CATDS (CSNK1A1) | IC50 (PKN3; [1]) | IC50 (PKN3; [2]) | IC50 (PKN3; [3]) | other results
Nc1ncnc2[nH]c(-c3ccccc3)nc12 [AH5015_KCGS] | 0.0268 | 0 | 0 | 0 | 0 | 0 | 0 | 0 | 0 | 0 | 0 | 0.1088 | 0 | 0 | 0.03222 | 0 | 0 | – | – | – | –
CCN1CCN(Cc2ccc(Nc3ncc(F)c(-c4cc(F)c5nc(C)n(C(C)C)c5c4)n3)nc2)CC1 [Abemaciclib] | 0 | 0 | 0 | 0 | 0 | 0 | 0 | 0 | 0 | 0 | 0 | 0 | 0 | 0 | 0 | 0 | 0 | – | – | – | –
CN(C)C/C=C/C(=O)Nc1cc2c(Nc3ccc(F)c(Cl)c3)ncnc2cc1O[C@H]1CCOC1 [Afatinib] | 0 | – | 0 | 0 | – | 0 | – | 0 | – | – | – | – | – | – | 0 | – | – | – | – | – | –
CCc1cc2c(cc1N1CCC(N3CCOCC3)CC1)C(C)(C)c1[nH]c3cc(C#N)ccc3c1C2=O [Alectinib] | 0 | 0 | 0 | 0 | 0 | 0 | 0 | 0 | 0 | 0 | 0 | 0 | 0 | 0 | 0 | 0 | 0 | – | – | – | –
N#CC1(c2ccc(NC(=O)c3cccnc3NCc3ccncc3)cc2)CCCC1 [Apatinib] | 0 | 0 | 0 | 0 | 0 | 0 | 0 | 0 | 0 | 0 | 0 | 0 | 0 | 0 | 0 | 0 | 0 | – | – | – | –
CCn1c(-c2nonc2N)nc2c(C#CC(C)(C)O)nc(OCCN)cc21 [GSK902056A] | – | – | – | – | – | – | – | – | – | – | – | – | – | – | – | – | – | 79 nM | 99.2 nM | 234 nM | IC50 (PKN3; [4]): 56.5 nM; IC50 (PKN3; [5]): 27 nM; IC50 (PKN3; [6]): 79.2 nM
CCn1c(-c2nonc2N)nc2c(C#CC(C)(C)O)nc(OCCNC)cc21 [GSK949675A] | – | – | – | – | – | – | – | – | – | – | – | – | – | – | – | – | – | 136 nM | 669 nM | 1950 nM | IC50 (PKN3; [4]): 441 nM; IC50 (PKN3; [5]): 149 nM
NCc1ccc(-c2nc(-c3ccncc3)c(-c3ccc(Cl)c(O)c3)[nH]2)cc1 [SB-476429-A] | – | – | – | – | – | – | – | – | – | – | – | – | – | – | – | – | – | 85 nM | 243 nM | 589 nM | IC50 (PKN3; [4]): 211 nM; IC50 (PKN3; [5]): 86.7 nM; IC50 (PKN3; [6]): 85.4 nM
